Measurements reported in patent US7935688B2, “Vitamin D-like compound” (Chugai Seiyaku Kabushiki Kaisha, priority 2005, dated 2011).

System: osteocalcin production in MG-63 cells
Assay: Osteocalcin production in MG-63 cells (Gla-type Osteocalcin EIA)
Assay type: cell-based, human
Settings: (EC50 value of 1,25(OH)2D3/EC50 value of each compound)×100; eight hours exposure, then four days culture
Description: mg-63 was obtained from Institute for Fermentation, Osaka as a human osteoblast-like cell line. MG-63 cells were maintained and cultured in a MEM medium (Minimum essential medium; pH 7.0; Invitrogen Corporation, Carlsbad, Calif., USA) containing 5% fetal bovine serum (FBS; HyClone, Logan, Utah, USA).
MG-63 cells were adjusted to a density of 4.0×10^4 cells/mL, plated in a 96-well plate at 200 μL per well, and cultured under conditions of 37° C. and 5% carbon dioxide for 24 hours.
After removing the medium, MEM containing 5% charcoal/dextran treated FBS (DCC-FBS; Hyclone, Logan, Utah, USA) was added at 180 μL/well. The test substance (1.0×10^−3 mol/L) was diluted with dimethyl sulfoxide (DMSO) to 1.0×10^−4 mol/L, 1.0×10^−5 mol/L, 1.0×10^−6 mol/L, 1.0×10^−7 mol/L and 1.0×10^−8 mol/L. 1,25(OH)2D3 was used as a positive control. Like the test substance, 1,25(OH)2D3 was diluted with DMSO. 0.02 mL of the positive control and the test substance diluted 100-fold with MEM containing 5% DCC-FCS was added to each well of the 96-well plate, so that the final drug concentration was 1.0×10^−6 mol/L to 1.0×10^−11 mol/L. Thereafter, the cells were cultured under conditions of 37° C. and 5% carbon dioxide for eight hours.
After culturing for eight hours, the medium was removed, and MEM containing 5% DCC-FBS was added at 0.2 mL per well. The cells were cultured under conditions of 37° C. and 5% carbon dioxide for four days, and the medium was recovered. The medium was stored at −80° C. until osteocalcin measurement.
The Gla-type Osteocalcin EIA kit (Takara Bio Inc., Tokyo, Japan) was used for measurement of osteocalcin. Measurement was carried out using a microplate reader (Model 3550, Bio-Rad Laboratories, Inc., Hercules, Calif., USA) at a wavelength of 450 nm, and the results were analyzed by Microplate Manager III (Bio-Rad Laboratories, Inc., ver. 1.57).
The median effective concentration (EC50) was calculated from the osteocalcin concentration. Potency of induction of each compound was calculated as a ratio of EC50 of 1,25(OH)2D3 to EC50 of the compound. The relation between diseases and induction of osteocalcin production is described in Lancet (1984 May 19), 1 (8386), 1091-3; Steroids 66, 159-170 (2001); and Journal of Steroid Biochemistry & Molecular Biology 89-90, 269-271 (2004), for example.
The osteocalcin production level in MG-63 cells (%) was calculated by the formula: (EC50 value of 1,25(OH)2D3/EC50 value of each compound)×100.

Row | SMILES | Osteocalcin production level in MG-63 cells (%)
1 | CCC(CC)(c1ccc(/C=C/C2(O)CCCC2)c(C)c1)c1ccc(-c2ccc(CC(=O)O)cc2)c(C)c1 [Example 53, (E)-[4′-(1-Ethyl-1-{4-[2-(1-hydroxy-cyclopentyl)-vinyl]-3-methyl-phenyl}-propyl)-2′-methyl-biphenyl-4-yl]-acetic Acid] | 772
2 | CCC(CC)(c1ccc(-c2cncc(CC(=O)O)c2)cc1)c1ccc(OCC(O)C(C)(C)C)c(C)c1 (stereo not shown) [Example 146, [5-(4-{1-ethyl-1-[4-(2-hydroxy-3,3-dimethyl-butoxy)-3-methyl-phenyl]-propyl}-phenyl)-pyridin-3-yl]-acetic Acid] | 3721
3 | CCC(CC)(c1ccc(OCC(O)C(C)(C)C)c(C)c1)c1ccc(-c2ccc(CC(=O)O)c(F)c2)c(C)c1 (stereo not shown) [Example 100, (4′-{1-ethyl-1-[4-(2-hydroxy-3,3-dimethyl-butoxy)-3-methyl-phenyl]-propyl}-3-fluoro-2′-methyl-biphenyl-4-yl)-acetic Acid] | 878
4 | CCC(CC)(c1ccc(CCC(O)C(C)(C)C)c(C)c1)c1ccc(-c2cncc(CC(=O)O)c2)c(C)c1 (single isomer, unassigned) [Example 24, [5-(4-{1-ethyl-1-[4-(3-hydroxy-4,4-dimethyl-pentyl)-3-methyl-phenyl]-propyl}-2-methyl-phenyl)-pyridin-3-yl]-acetic Acid] | 660
5 | CCC(CC)(c1ccc(/C=C/C(O)(C(F)(F)F)C(F)(F)F)c(C)c1)c1ccc(-c2ccc(CC(=O)O)cn2)c(C)c1 [Example 74, [6-(4-{1-ethyl-1-[3-methyl-4-((E)-4,4,4-trifluoro-3-hydroxy-3-trifluoromethyl-1-butenyl)-phenyl]-propyl}-2-methyl-phenyl)-pyridin-3-yl]-acetic Acid] | 1848
6 | CCC(CC)(c1ccc(C#CC(O)(C(F)(F)F)C(F)(F)F)c(C)c1)c1ccc(-c2ccc(CC(=O)O)c(F)c2)c(C)c1 [Example 78, (4′-{1-ethyl-1-[3-methyl-4-(4,4,4-trifluoro-3-hydroxy-3-trifluoromethyl-1-butynyl)-phenyl]-propyl}-3-fluoro-2′-methyl-biphenyl-4-yl)-acetic Acid] | 617
7 | CCC(CC)(c1ccc(/C=C/C2(O)CCCC2)c(C)c1)c1ccc(-c2ccc(CC(=O)O)cn2)c(C)c1 [Example 85, {6-[4-(1-ethyl-1-{4-[(E)-2-(1-hydroxy-cyclopentyl)-vinyl]-3-methyl-phenyl}-propyl)-2-methyl-phenyl]-pyridin-3-yl}-acetic Acid] | 765
8 | CCC(CC)(c1ccc(/C=C/C(O)(C(F)(F)F)C(F)(F)F)c(C)c1)c1ccc(-c2cncc(CC(=O)O)c2)c(C)c1 [Example 75, [5-(4-{1-ethyl-1-[3-methyl-4-((E)-4,4,4-trifluoro-3-hydroxy-3-trifluoromethyl-1-butenyl)-phenyl]-propyl}-2-methyl-phenyl)-pyridin-3-yl]-acetic Acid] | 1283
9 | CCC(CC)(c1ccc(/C=C/C(O)(C(F)(F)F)C(F)(F)F)c(C)c1)c1ccc(-c2ccc(CC(=O)O)c(Cl)c2)c(C)c1 [Example 73, (3-chloro-4′-{1-ethyl-1-[3-methyl-4-((E)-4,4,4-trifluoro-3-hydroxy-3-trifluoromethyl-1-butenyl)-phenyl]-propyl}-2′-methyl-biphenyl-4-yl)-acetic Acid] | 1595
10 | CCC(CC)(c1ccc(CCC(O)C(C)(C)C)c(C)c1)c1ccc(-c2ccc(CC(=O)O)cn2)c(C)c1 (single isomer, unassigned) [Example 23, [6-(4-{1-ethyl-1-[4-(3-hydroxy-4,4-dimethyl-pentyl)-3-methyl-phenyl]-propyl}-2-methyl-phenyl)-pyridin-3-yl]-acetic Acid] | 3264
11 | CCC(CC)(c1ccc(/C=C/C2(O)CCCCC2)c(C)c1)c1ccc(-c2ccc(CC(=O)O)c(F)c2)c(C)c1 [Example 88, [4′-(1-ethyl-1-{4-[(E)-2-(1-hydroxy-cyclohexyl)-vinyl]-3-methyl-phenyl}-propyl)-3-fluoro-2′-methyl-biphenyl-4-yl]-acetic Acid] | 4562
12 | CCC(CC)(c1ccc(/C=C/C2(O)CCCCC2)c(C)c1)c1ccc(-c2ccc(CC(=O)O)cc2)c(C)c1 [Example 56, (E)-[4′-(1-ethyl-1-{4-[2-(1-hydroxy-cyclohexyl)-vinyl]-3-methyl-phenyl}-propyl)-2′-methyl-biphenyl-4-yl]-acetic Acid] | 1379
13 | CCC(CC)(c1ccc(CCC(O)C(C)(C)C)c(C)c1)c1ccc(-c2ccc(CC(=O)O)cc2)c(C)c1 (single isomer, unassigned) [Example 13, (4′-{1-ethyl-1-[4-(3-hydroxy-4,4-dimethyl-pentyl)-3-methyl-phenyl]-propyl}-2′-methyl-biphenyl-4-yl)-acetic Acid] | 401
14 | CCC(CC)(c1ccc(C#CC2(O)CCCC2)c(C)c1)c1ccc(-c2ccc(CC(=O)O)c(F)c2)c(C)c1 [Example 93, (4′-{1-ethyl-1-[4-(1-hydroxy-cyclopentylethynyl)-3-methyl-phenyl]-propyl}-3-fluoro-2′-methyl-biphenyl-4-yl)-acetic Acid] | 487
15 | CCC(CC)(c1ccc(OCC(O)C(C)(C)C)c(C)c1)c1ccc(-c2ccc(CC(=O)O)cc2)c(C)c1 (stereo not shown) [Example 51, (4′-{1-ethyl-1-[4-(2-hydroxy-3,3-dimethyl-butoxy)-3-methyl-phenyl]-propyl}-2′-methyl-biphenyl-4-yl)-acetic Acid] | 650
16 | CCC(CC)(c1ccc(CCC(O)C(C)(C)C)c(C)c1)c1ccc(-c2ccc(CC(=O)O)c(F)c2)c(C)c1 (stereo not shown) [Example 60, (4′-{1-ethyl-1-[4-(3-hydroxy-4,4-dimethyl-pentyl)-3-methyl-phenyl]-propyl}-3-fluoro-2′-methyl-biphenyl-4-yl)-acetic Acid] | 3798
17 | CCC(O)(/C=C/c1ccc(C(CC)(CC)c2ccc(-c3ccc(CC(=O)O)cc3)c(C)c2)cc1C)CC [Example 22, (E)-(4′-{1-ethyl-1-[4-(3-ethyl-3-hydroxy-1-pentenyl)-3-methyl-phenyl]-propyl}-2′-methyl-biphenyl-4-yl)-acetic Acid] | 1044
18 | CCC(CC)(c1ccc(CCC(O)C(C)(C)C)c(C)c1)c1ccc(-c2ccc(CC(=O)O)c(Cl)c2)c(C)c1 (stereo not shown) [Example 61, (4′-{1-ethyl-1-[4-(3-hydroxy-4,4-dimethyl-pentyl)-3-methyl-phenyl]-propyl}-3-chloro-2′-methyl-biphenyl-4-yl)-acetic Acid] | 956
19 | CCC(CC)(c1ccc(/C=C/C2(O)CCCC2)c(C)c1)c1ccc(-c2ccc(CC(=O)[O-])c(F)c2)c(C)c1.[Na+] [Example 84, Sodium [4′-(1-ethyl-1-{4-[(E)-2-(1-hydroxy-cyclopentyl)-vinyl]-3-methyl-phenyl}-propyl)-3-fluoro-2′-methyl-biphenyl-4-yl]-acetate] | 739
20 | CCC(CC)(c1ccc(-c2cncc(CC(=O)O)c2)cc1)c1ccc(CCC2(O)CCCC2)c(C)c1 [Example 150, {5-[4-(1-ethyl-1-{4-[2-(1-hydroxy-cyclopentyl)-ethyl]-3-methyl-phenyl}-propyl)-phenyl]-pyridin-3-yl}-acetic Acid] | 645
21 | C=C1/C(=C\C=C2/CCC[C@]3(C)[C@@H]([C@H](C)CCCC(C)(C)O)CC[C@@H]23)C[C@@H](O)C[C@@H]1O [1,25(OH)2D3, 1α,25-dihydroxyvitamin D3, reference compound] | 100
22 | CCC(CC)(c1ccc(OCC(O)CO)c(C)c1)c1ccc(OCC(O)C(C)(C)C)c(C)c1 (stereo not shown) [LG190178, reference compound] | 185
